Experimental data as given in patent publication US12280040B2, “Compositions and methods of a dihydroisoxazole compound that reduces ectoparasite infestations on fish” (EVAH Atlantic Inc., priority 2023, dated 2025).

Experiments:
[1] = tested on: Lepeophtheirus salmonis; assay: Efficacy of medicated feed against an existing experimental sea lice infestation on Atlantic salmon post-smolts (Example 1); format: in vivo
Description: A randomized, blinded, parallel-group, negative-controlled study was conducted in which, the active ingredient was administered in medicated feed to laboratory-maintained Atlantic salmon (Salmo salar) post-smolts in seawater. Smolts were experimentally infested with sea lice (Lepeophtheirus salmonis) under laboratory conditions prior to being fed the medicated diet to assess the efficacy of the active ingredient in reducing the number of sea lice/fish.
Healthy Atlantic salmon post-smolts (n=750) were selected for enrollment and distributed sequentially across ten (10) study tanks. Fish were weighed individually during the allocation of fish to tanks on study day (SD)-95, with SD 0 serving as the first day of treatment. Fish were weighed on SD −2, +8, +18, +22, and +30. The fish weights on SD −2 were used to estimate the average weight of all fish and used to determine the feeding amount during the treatment period (SD 0−+6). A target of total of 10 fish/tank were lethally sampled, lice-counted, and weight and length were measured. The mean weight of fish in tanks on SD −2 was 829.9±161.7 g.
Atlantic salmon post-smolts were infested once with sea lice using an experimental challenge model. About 50 copepodids (Lepeophtheirus salmonis) per fish were added to each tank on SD −17. During the study the water temperature varied between 8 and 12° C. The water oxygen saturation was consistently above 80% throughout the study.
Five treatment groups were randomly assigned to ten study tanks so that there were 2 tanks per treatment group. Study personnel were blinded as to the identity of the treatments for each tank.
Sea lice were counted four times during the study. All sampled fish were euthanized and lice counted. The baseline count occurred on SD −2 (with 10 fish per tank), corresponding to ˜160 degree days (15 d) post-infestation. The time was sufficient for lice development to the chalimus stage. Count 1 occurred on SD +8 (with 20 fish per tank) corresponding to ˜260 degree days (25 d) post infestation and 2 days post treatment. The time was sufficient for lice development into chalimus and pre-adult stages in the control tanks. Count 2 occurred on SD +18 (with 20 fish per tank) corresponding to ˜360 degree days (35 d) post infestation and 12 days post treatment. The time was sufficient for lice development into adult males and females in the control tanks. Count 3 occurred on SD +22 (with 20 fish per tank) corresponding to ˜400 degree days (39 d) post infestation and 16 days post treatment. The time was sufficient for lice development into adult males and females with no chalimus stages present in the control tanks.
Medicated feed was prepared by dry coating commercially available fish feed pellets with a premix containing the active ingredient to reach a content of about 1.6, 4.0. 8.0 and 19.9 mg/kg. The fish pellets were then coated with feed grade herring fish oil at an inclusion rate of about 0.75% w/w (7.5 g/kg feed) The consumption rate of the medicated feed was set to 0.628% body weight.
Treatment efficacy was computed for total number of sea lice/fish and total number of mobile life stages, i.e., preadult & adult sea lice/fish for each post-treatment sea lice counting occasion. For the total number of attached/fish, treatment efficacy was computed at the first count post-treatment. Percent efficacy was computed using Abbott's formula for each treatment group compared to control as follows:
[formula] where MC and MT are the arithmetic means of sea lice counts in the untreated control and S-roxapin-treated groups, respectively.
Treatments were considered efficacious when the percent efficacy was ≥90% for treated groups compared to untreated control groups.
The mean sea lice abundance was reported for different parasite life stages (attached, mobile, and total (attached and mobile together)) and computed as the number of lice on salmon divided by the number of sampled fish per tank. […]

[2] = tested on: Lepeophtherius salmonis; conditions: 1.0 mg/kg/d in medicated feed to Atlantic salmon for 7 consecutive days; lice counted 10 days after end of treatment; cited from earlier work
[3] = 0.010 mg/kg/d in feed 7 d, 2 DPT
[4] = 0.010 mg/kg/d in feed 7 d, 12 DPT
[5] = 0.010 mg/kg/d in feed 7 d, 16 DPT
[6] = 0.025 mg/kg/d in feed 7 d, 2 DPT
[7] = 0.025 mg/kg/d in feed 7 d, 12 DPT
[8] = 0.025 mg/kg/d in feed 7 d, 16 DPT
[9] = 0.050 mg/kg/d in feed 7 d, 2 DPT
[10] = 0.050 mg/kg/d in feed 7 d, 12 DPT
[11] = 0.050 mg/kg/d in feed 7 d, 16 DPT
[12] = 0.125 mg/kg/d in feed 7 d, 2 DPT
[13] = 0.125 mg/kg/d in feed 7 d, 12 DPT
[14] = 0.125 mg/kg/d in feed 7 d, 16 DPT

For `C#CCNC(=O)CNC(=O)c1sc(C2=NO[C@@](c3cc(Cl)c(Cl)c(Cl)c3)(C(F)(F)F)C2)cc1C` [S-roxapin, (S)-3-methyl-N-(2-oxo-2-(prop-2-yn-1-ylamino)ethyl)-5-(5-(3,4,5-trichlorophenyl)-5-(trifluoromethyl)-4,5-dihydroisoxazol-3-yl)thiophene-2-carboxamide], the “Number of Attached Lice/Fish % Efficacy” value [1, 3] was 96.2%, the “Number of Attached Lice/Fish Mean ± SD” value [1, 3] was 0.1 ± 0.3 lice/fish and the “Number of Mobile Lice/Fish % Efficacy” value [1, 3] was 89.1%. For the same compound, the “Number of Mobile Lice/Fish Mean ± SD” value [1, 3] was 1.7 ± 2.2 lice/fish, the “Total Number of Lice/Fish % Efficacy” value [1, 3] was 90.3% and the “Total Number of Lice/Fish Mean ± SD” value [1, 3] was 1.8 ± 2.4 lice/fish. The “Number of Attached Lice/Fish Mean ± SD” value [1, 4] was 0.0 ± 0.0 lice/fish, the “Number of Mobile Lice/Fish % Efficacy” value [1, 4] was 94.1% and the “Number of Mobile Lice/Fish Mean ± SD” value [1, 4] was 1.1 ± 3.0 lice/fish. For the same compound, the “Total Number of Lice/Fish % Efficacy” value [1, 4] was 94.1%, the “Total Number of Lice/Fish Mean ± SD” value [1, 4] was 1.1 ± 3.0 lice/fish and the “Number of Attached Lice/Fish Mean ± SD” value [1, 5] was 0.0 ± 0.0 lice/fish. For the same compound, the “Number of Mobile Lice/Fish % Efficacy” value [1, 5] was 97.7%, the “Number of Mobile Lice/Fish Mean ± SD” value [1, 5] was 0.5 ± 0.7 lice/fish and the “Total Number of Lice/Fish % Efficacy” value [1, 5] was 97.7%. The “Total Number of Lice/Fish Mean ± SD” value [1, 5] was 0.5 ± 0.7 lice/fish, the “Number of Attached Lice/Fish % Efficacy” value [1, 6] was 98.5% and the “Number of Attached Lice/Fish Mean ± SD” value [1, 6] was 0.1 ± 0.1 lice/fish. The “Number of Mobile Lice/Fish % Efficacy” value [1, 6] was 98.8%, the “Number of Mobile Lice/Fish Mean ± SD” value [1, 6] was 0.2 ± 0.3 lice/fish and the “Total Number of Lice/Fish % Efficacy” value [1, 6] was 98.8%. For the same compound, the “Total Number of Lice/Fish Mean ± SD” value [1, 6] was 0.2 ± 0.3 lice/fish, the “Number of Attached Lice/Fish Mean ± SD” value [1, 7] was 0.1 ± 0.2 lice/fish and the “Number of Mobile Lice/Fish % Efficacy” value [1, 7] was 99.9%. The “Number of Mobile Lice/Fish Mean ± SD” value [1, 7] was 0.0 ± 0.1 lice/fish, the “Total Number of Lice/Fish % Efficacy” value [1, 7] was 99.5% and the “Total Number of Lice/Fish Mean ± SD” value [1, 7] was 0.1 ± 0.2 lice/fish. For the same compound, the “Number of Attached Lice/Fish Mean ± SD” value [1, 8] was 0.0 ± 0.0 lice/fish, the “Number of Mobile Lice/Fish % Efficacy” value [1, 8] was 99.9% and the “Number of Mobile Lice/Fish Mean ± SD” value [1, 8] was 0.0 ± 0.1 lice/fish. For the same compound, the “Total Number of Lice/Fish % Efficacy” value [1, 8] was 99.9%, the “Total Number of Lice/Fish Mean ± SD” value [1, 8] was 0.0 ± 0.1 lice/fish and the “Number of Attached Lice/Fish % Efficacy” value [1, 9] was 92.3%. For the same compound, the “Number of Attached Lice/Fish Mean ± SD” value [1, 9] was 0.3 ± 0.3 lice/fish, the “Number of Mobile Lice/Fish % Efficacy” value [1, 9] was 99.7% and the “Number of Mobile Lice/Fish Mean ± SD” value [1, 9] was 0.1 ± 0.1 lice/fish. The “Total Number of Lice/Fish % Efficacy” value [1, 9] was 98.4%, the “Total Number of Lice/Fish Mean ± SD” value [1, 9] was 0.3 ± 0.3 lice/fish and the “Number of Attached Lice/Fish Mean ± SD” value [1, 10] was 0.0 ± 0.0 lice/fish. For the same compound, the “Number of Mobile Lice/Fish Mean ± SD” value [1, 10] was 0.1 ± 0.2 lice/fish, the “Total Number of Lice/Fish % Efficacy” value [1, 10] was 99.6% and the “Total Number of Lice/Fish Mean ± SD” value [1, 10] was 0.1 ± 0.2 lice/fish. For the same compound, the “Number of Attached Lice/Fish Mean ± SD” value [1, 11] was 0.0 ± 0.0 lice/fish, the “Number of Mobile Lice/Fish % Efficacy” value [1, 11] was 99.7% and the “Number of Mobile Lice/Fish Mean ± SD” value [1, 11] was 0.1 ± 0.2 lice/fish. For the same compound, the “Total Number of Lice/Fish % Efficacy” value [1, 11] was 99.7%, the “Total Number of Lice/Fish Mean ± SD” value [1, 11] was 0.1 ± 0.2 lice/fish and the “Number of Attached Lice/Fish % Efficacy” value [1, 12] was 93.8%. The “Number of Attached Lice/Fish Mean ± SD” value [1, 12] was 0.2 ± 0.3 lice/fish, the “Number of Mobile Lice/Fish % Efficacy” value [1, 12] was 99.8% and the “Number of Mobile Lice/Fish Mean ± SD” value [1, 12] was 0.0 ± 0.1 lice/fish. The “Total Number of Lice/Fish % Efficacy” value [1, 12] was 98.8%, the “Total Number of Lice/Fish Mean ± SD” value [1, 12] was 0.2 ± 0.4 lice/fish and the “Number of Attached Lice/Fish Mean ± SD” value [1, 13] was 0.0 ± 0.1 lice/fish. The “Number of Mobile Lice/Fish % Efficacy” value [1, 13] was 100.0%, the “Number of Mobile Lice/Fish Mean ± SD” value [1, 13] was 0.0 ± 0.0 lice/fish and the “Total Number of Lice/Fish % Efficacy” value [1, 13] was 99.9%. The “Total Number of Lice/Fish Mean ± SD” value [1, 13] was 0.0 ± 0.1 lice/fish, the “Number of Attached Lice/Fish Mean ± SD” value [1, 14] was 0.1 ± 0.2 lice/fish and the “Number of Mobile Lice/Fish % Efficacy” value [1, 14] was 99.9%. For the same compound, the “Number of Mobile Lice/Fish Mean ± SD” value [1, 14] was 0.1 ± 0.2 lice/fish, the “Total Number of Lice/Fish % Efficacy” value [1, 14] was 99.6% and the “Total Number of Lice/Fish Mean ± SD” value [1, 14] was 0.1 ± 0.2 lice/fish. For the same compound, the “efficacy compared with the lowest dosage (0.010 mg/kg/d)” value ([1]; dosages of 0.025, 0.050 and 0.125 mg/kg/d in medicated feed over 7 consecutive days) was “significantly higher efficacy”, the “observed minimum efficacious dosage relative to U.S. Pat. No. 9,920,037 (1.0 mg/kg/d)” value ([1]; medicated feed over 7 consecutive days to salmon, provisionally concluded) was 20-40 times lower and the “efficacy against chalimus and pre-adult/adult stages of the sea louse” value [2] was 100%.
